Results: ChEMBL document CHEMBL2074516, “cDNA structure, genomic organization, and promoter analysis of the mouse intestinal peptide transporter PEPT1” (Biochim Biophys Acta, 2000)
Where a SMILES comes first, the peptide text is derived from it. [ ]: non-standard residue; d: D form. Sar = CNCC(=O)O

Key:
[1] = target: T1, Solute carrier family 15 member 1 (Mus musculus) (UniProt Q9JIP7); assay: TP_TRANSPORTER: uptake in PEPT1-expressing HRPE cells; type: functional, cell-based
T1 sequence (whole entry): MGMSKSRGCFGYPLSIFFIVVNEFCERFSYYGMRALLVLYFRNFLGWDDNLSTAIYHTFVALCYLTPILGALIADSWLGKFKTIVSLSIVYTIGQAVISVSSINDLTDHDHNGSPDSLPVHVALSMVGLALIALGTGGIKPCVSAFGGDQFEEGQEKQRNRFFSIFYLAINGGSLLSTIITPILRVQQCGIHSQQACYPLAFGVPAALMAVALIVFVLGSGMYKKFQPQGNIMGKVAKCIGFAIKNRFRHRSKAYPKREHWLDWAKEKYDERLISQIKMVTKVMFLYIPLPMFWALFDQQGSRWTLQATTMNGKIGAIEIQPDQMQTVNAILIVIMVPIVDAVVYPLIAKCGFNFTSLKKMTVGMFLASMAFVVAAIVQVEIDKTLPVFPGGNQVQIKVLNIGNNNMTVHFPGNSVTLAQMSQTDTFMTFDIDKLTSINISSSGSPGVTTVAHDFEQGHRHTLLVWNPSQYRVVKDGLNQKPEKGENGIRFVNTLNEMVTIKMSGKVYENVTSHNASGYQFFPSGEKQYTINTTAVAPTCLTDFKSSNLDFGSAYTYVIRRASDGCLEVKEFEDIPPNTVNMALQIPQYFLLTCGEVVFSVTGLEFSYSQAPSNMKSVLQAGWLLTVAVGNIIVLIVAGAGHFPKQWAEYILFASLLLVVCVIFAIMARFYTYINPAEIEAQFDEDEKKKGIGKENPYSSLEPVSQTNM

[2] = target: T1, Solute carrier family 15 member 1 (Mus musculus); assay: TP_TRANSPORTER: uptake in Xenopus laevis oocytes; type: functional, cell-based; details: Oocyte

In the case of `CN(CC(=O)O)C(=O)CN` (H-Gly-[Sar]-OH), the Activity [1] is reported as “substrate [+]” and the Activity [2] is reported as “substrate [+]”.
